Measurements taken from patent US20180179166A1, “SMALL MOLECULE INHIBITORS OF GP120-MEDIATED HIV INFECTION AND METHODS OF USE” (ViroCarb Inc., priority 2014, published 2018).

Biological target: R5 gp120 (Human immunodeficiency virus type 1 group M subtype B, UniProt P35961)
Conditions: CD4/CCR5 transfected U87 cells; 20 μg/mL gp120; western blot
Method: Cell bound R5 gp120 was detected by western blot. […] Lanes 1: cells alone; Cells treated with 2: 20 μg/mL gp120; 3: 20 μg/mL gp120+20 μM adaGb Gb3; 4: 20 μg/mL gp120+50 μM ada Gb3; 5: 20 μg/mL gp120+150 μM ada Gb3; 6: 20 μg/mL gp120+5 μg/mL solCD4; 7: 20 μg/mL gp120+5 μg/mL solCD4+20 μM ada Gb3; 8: 20 μg/mL gp120+5 μg/mL solCD4+50 μM ada Gb3; 9: 20 μg/mL gp120+5 μg/mL solCD4+150 μM ada Gb3; 10: 20 μg/mL gp120+50 μM.

In the case of CCCCCCCCCCCCC/C=C/[C@@H](O)[C@H](CO[C@@H]1O[C@H](CO)[C@@H](O[C@@H]2O[C@H](CO)[C@H](O[C@H]3O[C@H](CO)[C@H](O)[C@H](O)[C@H]3O)[C@H](O)[C@H]2O)[C@H](O)[C@H]1O)NC(=O)CC12CC3CC(CC(C3)C1)C2 [AdamantylGb3], the “binding of R5 gp120 to CCR5 of cells after pretreatment of gp120” value is reported as “reduces its binding to CCR5 of cells”.
